Data on one compound can be found in patent publication US20100317736A1, “COMPOSITION OF THE SKIN EXTERNAL APPLICATION OR THE FOOD FOR ACCELERATING PROLINE RECYCLING BY CONTAINING THEANINE” (priority 2007, published 2010).

Data set [1] relates to female hairless mice (SKH, HR-1). Briefly: H&E staining, thickness of the epidermal layer. The class given is in vivo. As to conditions: for Thickness of epidermal layer: 500 mg theanine per kg oral, 5 weeks, UV. The protocol: In addition, the H&E (heamatoxylin & eosin) staining assay was performed for observation of general tissue condition and measurement of thickness of the epidermal layer. The thickness of the epidermal layer was measured at 10 different spots randomly selected per tissue by observing the H&E stained slide under the microscope with 100× magnification and the average value was shown in Table 3.

Another data set has as its system type 1 collagen. In words: Immunohistochemistry of type 1 collagen in skin tissue. The class given is in vivo, mice. As to conditions: 500 mg theanine per kg oral, 5 weeks, UV, versus Comparative Example 3, FIG. 8. The protocol: This example was performed using the hairless mice of Example 2 and Comparative Example 2 to 3, which had been used in Experiment Example 6 and histopathological observation was performed by immunohistochemistry. The skin on the back of the hairless mice was taken, fixed in 10% neutral formalin and subjected to immunohistochemistry using monoclonal IgG1 antibody to examine the expression of type 1 collagen in the skin tissue.

Data set [2] deals with Human fibroblasts. Briefly: Cell viability (MTT). It is filed as cell-based. Conditions: 1, 10, 100, 1000 and 10000 μM theanine, 24 hours, FIG. 2. How it is done:
2×10^3 of human fibroblasts were cultured in a 96 well plate, treated with 1, 10, 100, 1000 and 10000 μM of theanine and incubated for 24 hours. 3-(4,5-dimethylazol-2-yl)-2,5-diphenyl-2H-tetraazoliumbromide (MTT) was added to the concentration of 0.5 mg/ml and further incubated for 4 hours.

Data set [3] has as its system female hairless mice (SKH, HR-1). In words: Inhibition of photoaging in hairless mouse, oral administration, replica / SkinVisiometer. Conditions: 500 mg theanine per kg oral, 5 weeks, UV total 600 mJ/cm^2, versus Comparative Example 3, FIG. 7. The class given is in vivo. From the text:
In order to examine the effect of orally administered theanine on photoaging, hairless mice were used as animal models for this experiment. As described in Table 2, 6 to 7 week old female hairless mice (SKH, HR-1) were divided into 3 groups of Comparative Example 2 (normal group), Comparative Example 3 (UV control group) and Example 2 (UV/theanine treatment group), each group having 8 mice and were raised for the experiment period.
The mice of Comparative Example 2 and Comparative Example 3 were orally administered with 0.5 ml of saline and the mice of Example 2 were administered with 500 mg of theanine, based on the solid faction, per kg of body weight dissolved in 0.5 ml of saline using a syringe for liquid injection. The administration was continued for total 5 weeks and performed at the predetermined time for 5 days per week. From 2 weeks through 5 weeks after the administration had started, the groups of Comparative Example 3 and Example 2 were irradiated by UV under conditions similar to solar light three times per week. Here, the total UV irradiation for the experiment period was set to 600 mJ/cm^2. In order to objectively judge the effect of improving wrinkle, a replica was taken from the back of each hairless mouse prior to an autopsy. The skin surface was imaged using SkinVisiometer to compare and rates the degree of the skin wrinkles.

The subject of the next data set is prolidase. In words: Prolidase activity in dermal cells (Chinard reaction, Gly-Pro substrate). It is filed as cell-based, human. Conditions: 0.01, 0.1, 1, 2 or 10 mM theanine, 24 hours, versus untreated control, FIG. 3. How it is done: 10^5 of human fibroblasts were cultured in 6 well plates for 6 days. The medium was replaced with heat-inactivated fetal bovine serum and then incubated for an additional 24 hours. The medium was again replaced with a culture medium containing either 0.01, 0.1, 1, 2 or 10 mM of theanine. After 24 hours, the cells were harvested and subjected to the Chinard reaction. The cells were ultrasonically disrupted and centrifuged at 100,000×g for 15 minutes. The supernatant was collected and mixed with 2 mM MnCl2 in the same amount for the prolidase reaction. The mixture was pre-reacted at 37° C. for 24 hours. 94 mM glycine-proline (Gly-Pro) dipeptide as a substrate of the prolidase reaction was added thereto in the same amount of the pre-reacted mixture and reacted at 37° C. for 1 hours. Then, the reaction was ended by adding 0.45M TCA. The enzymatic activity of prolidase was determined by quantifying proline, which is isolated by prolidase, by the color development using ninhydrin reagent. The enzyme activity was shown as a value calculating the equation of amount of isolated proline over protein weight over time (Mol/min/mg) and the result is shown in FIG. 3.

For data set [4], the system named is Human fibroblasts. Briefly: Total collagen biosynthesis in dermal cells (L-[3H]-proline incorporation). Conditions: 1 mM theanine, 24 hours, relative to 100 of control group, FIG. 4. It is filed as cell-based. The protocol:
5×10^4 of human fibroblasts were cultured in 24 well plates. The medium was replaced with a medium containing 164 kBq/ml L-[^3H]-proline and supplemented with theanine in a concentration either 0.01, 0.1, 1 or 10 mM. After incubation of 24 hours, the cells were harvested, disrupted and treated with collagenase to separate collagen. Then, the amount of ^3H increased by the treatment with theanine was determined using a liquid scintillation counter and compared to that of the control group which had not been treated with theanine. Without regard to the collagen type, the total collagen amount was measured and the data described in FIG. 4 are calculated relative to 100 of the control group. As a result, it was confirmed that the total collagen biosynthesis was increased by about 45% when treated with 1 mM of theanine.

For data set [5], the system named is SKH-1 female hairless mice. Briefly: Collagen biosynthesis in hairless mice, closed patch test, western blotting. The class given is in vivo. Conditions: cream of Example 1 (theanine 1) on back skin, closed patch test 2 weeks, versus Comparative Example 1, FIG. 5. The text has this: In order to examine the effect of improving skin wrinkle of theanine, SKH-1 female hairless mice, about 7 weeks old, were subjected to a closed patch test for 2 weeks. Each cream of Example 1 and Comparative Example 1 was applied on the back skin of the hairless mouse and after the closed patch test, the skin was biopsed. Proteins were separated from the biopsed skin and assessed for collagen by western blotting.
Background: Immunoblotting shows a protein as a band on a membrane.

In data set [6] the test system is Human fibroblasts. Briefly: Procollagen biosynthesis in dermal cells (ELISA). It is filed as cell-based. Conditions: 48 hours, FIG. 1. The protocol: Human fibroblasts are cultured in the concentration of 10^4 in 48 well plates. The medium of the plates was replaced with a culture medium containing either 10 μM of vitamin C or 10 μM of transforming growth factor-β (TGF-β) and a culture medium containing either 0.1, 1, 10 or 100 μM of theanine. After culturing for 48 hours, the supernatants were harvested and synthesized procollagen was quantified using the ELISA (Takara MK101) method. The data were calculated relative to 100 of control group without containing the above substances and the result was shown in FIG. 1.
(In general: ELISA stands for enzyme-linked immunosorbent assay.)

For the compound `CCNC(=O)CC[C@H](N)C(=O)O` [theanine], the “Thickness of epidermal layer” value was 77.4% in data set [1] and 7.56 ± 0.75 µm in data set [1] (average of 10 spots per tissue, the values are: epidermal thickness). In data set [1] (compared to the UV control group (Comparative Example 3)), the “decrease in the thickness of the epidermal layer” value is recorded as “about 23%”. In addition, the “type 1 collagen staining in skin tissue” value in the data set on type 1 collagen is “more collagen was stained in the epidermal and dermal junction”. In the data set with Human fibroblasts [2], the “cell viability / toxicity (MTT)” value is “not toxic at all”. Moreover, the “density and depth of the wrinkles on the skin surface” value in data set [3] is on record as “alleviated as compared to those of Comparative Example 3”. Further, the “prolidase activity (amount of isolated proline)” value in the data set with prolidase is given as “concentration-dependently increased”. In addition, the “increase of total collagen biosynthesis” value with Human fibroblasts [4] is on record as “about 45%”. Besides, the “collagen biosynthesis in skin (western blotting)” value in data set [5] is reported as “increased the collagen biosynthesis in the hairless mice”. For the same compound, the procollagen production entry in the data set on Human fibroblasts [6] (0.1, 1, 10 or 100 μM theanine, relative to 100 of control group) is “increased collagen production of fibroblast concentration-dependently”. The “procollagen production compared with positive controls” value in the data set with Human fibroblasts [6] (versus 10 μM vitamin C or 10 μM TGF-β) is “higher procollagen production than the positive control groups”.
